{"source": "patent US20080221074A1", "about": "“Drug Screen and Treatment Method” (priority 2006, published 2008)", "key": {"[1]": {"system": "human T lymphocytes (PBMC)", "assay": "human mixed lymphocyte reaction (MLR)", "assay_type": "cell-based", "conditions": "300 nM or 30 nM"}, "[2]": {"system": "blood glucose in db/db mice", "assay": "glucose lowering in diabetic db/db mice", "assay_type": "in vivo, db/db C57BL/Ks mice", "experimental": "Glucose lowering and amelioration of insulin resistance. Glucose lowering effects and amelioration of insulin resistance was assessed in the diabetic db/db mouse model of human diabetes and insulin resistance. In these studies, db/db C57BL/Ks mice of approximately 8 to 10 weeks of age were divided into groups of 10 each and then treated with a vehicle control (no drug) or 17α-ethynylandrost-5-ene-3β,7β,17β-triol by oral gavage. The compound was administered twice a day at 20 mg/kg/day (10 mg/kg dose administered twice per day), 40 mg/kg/day (20 mg/kg dose administered twice per day) or 80 mg/kg/day (40 mg/kg dose administered twice per day) for up to 28 days. Blood glucose levels were monitored twice a week during the dosing period, using a minute amount of blood (nick tail bleeds) to measure the concentration of glucose by glucometer strips. At specific times during the dosing period (day 14 and day 28), an oral glucose tolerance test (OGTT) was also performed by administering a standard oral dose of 1 g/kg glucose (approximately 40 mg in a […]) and then the fluctuation of blood glucose levels was monitored quickly thereafter after at 15, 30, 60 and 120 minutes after the glucose dose. […] Blood glucose approached 380 mg/dL in the vehicle control group and was <230 mg/dL after at least 10 days of dosing in the drug treated group.\nA treatment protocol similar to that described in example 15 was performed with db/db mice that were younger than the animals described in example 15. The animals (n=8 to 10 per group) were treated with 17α-ethynylandrost-5-ene-3β,7β,17β-triol or vehicle by oral gavage twice per day at 40 mg/kg/day (20 mg/kg dose given twice per day) and 80 mg/kg/day (40 mg/kg dose given twice per day). At the start of dosing, the animals were 6 weeks of age, before the onset of elevated glucose levels or hyperglycemia. Dosing with vehicle or drug was maintained for 32 days to determine the effect of the treatments on the onset and rate of progression of hyperglycemia in the animals. In the control group, the onset of hyperglycemia was observed after 25 days of dosing and it continued to worsen, i.e., blood glucose levels rose from normal to frank hyperglycemia, through the end of the 32 day dosing period."}}, "note": "“Also recorded” adds a separate entry of the source.", "data": [{"smiles": "C#C[C@]1(O)CC[C@H]2[C@@H]3[C@@H](O)C=C4C[C@@H](O)CC[C@]4(C)[C@H]3CC[C@@]21C", "note": "[17α-ethynylandrost-5-ene-3β,7β,17β-triol]", "values": [{"measurement": "immune suppression (inhibition of the MLR)", "setting": "[1]", "value": "not appreciably immune suppressive"}, {"measurement": "OGTT peak glycemic excursion", "setting": "[2]; 80 mg/kg b.i.d. for 28 days, 30-min post-oral glucose", "value": "< 200", "unit": "mg/dL"}, {"measurement": "onset of hyperglycemia", "setting": "[2]; 6 week old db/db mice, 32 day dosing", "value": "did not rise above normal levels; also recorded: completely blocked progression"}, {"measurement": "decrease in hyperglycemic blood glucose levels", "setting": "[2]; 8 to 10 week old db/db mice, oral gavage twice a day", "value": "approximately 40%"}, {"measurement": "basal blood glucose", "setting": "[2]; 8 week old male db/db mice, 40 mg/kg dose group, twice a day", "value": "markedly suppressed"}, {"measurement": "blood glucose", "setting": "[2]; after at least 10 days of dosing", "value": "< 230", "unit": "mg/dL"}, {"measurement": "glucose intolerance in OGTT vs vehicle", "setting": "[2]; treated db/db animals", "value": "significant amelioration of glucose intolerance"}]}]}
